From US9522928B2, “Mannosylated compounds useful for the prevention and the treatment of infectious diseases” (UNIVERSITE DE STRASBOURG, priority 2011, dated 2016)
Entries after “also recorded” stand apart in the source; their conditions may differ.

How the values were obtained:
[1] = test system: HIV-1 (R5 strain); test: HIV-1 cis-infection and replication in DCs (p24Gag ELISA); type: cell-based; conditions: 10 and 100 μM, p24Gag in supernatant
Description: Human monocyte-derived dendritic cells (2×10^5; 300 μL) in RPMI 1640 medium containing 10% FBS were pre-treated with either anti-DC-SIGN antibodies (clone AZND1, Beckman-Coulter; 10 μg/mL) or compounds TriManC24 and TriManC24insat (10 and 100 μM) for 30 min at 37° C., before inoculation with HIV-1 (R5 strain; 100 ng of p24Gag). After 3 h, cells were pelleted and extensively washed to remove excess virus and compounds. On day 2, 4 and 7 after infection, cells were pelleted, an aliquot of the supernatant was removed and kept at −20° C., and half of the supernatant was replaced with fresh medium. Viral replication was monitored by measuring p24Gag levels in the culture supernatant by an enzyme-linked immunosorbent assay (ELISA, Innogenetics). […] As shown in the case of Dengue virus, the compounds of the invention may also interfere with HIV cis-infection. […] Discussion

[2] = test system: DCs; test: Confocal microscopy of Alexa633-labeled TriManC24 in DCs; type: cell-based, human; conditions: Alexa Fluor 633 labeled compound, 100 μM, 10 min at 37° C.
Description: Human DCs (1×10^5 in 100 μl of RPMI medium) were exposed to Alexa633-labeled TriManC24 (100 μM final) for 10 min at 37° C. When indicated, transferrin-Alexa488 (Invitrogen) was also added for 10 min at 37° C. Cells were then washed and fixed with 4% paraformaldehyde for 15 min at room temperature. Nuclei were labeled with DAPI (1 μg/ml final) for 5 min. Slides were mounted using Prolong-Antifade (Molecular Probes). Samples were imaged with a confocal microscope (Zeiss LSM 700) and images analyzed with Adobe Photoshop.
To gain further insight into the interactions of TriManC24 with DC-SIGN expressed by DCs, a fluorescence-labeled TriManC24 was prepared by connecting Alexa Fluor 633 to hydroxyl groups of the mannose units. DCs were exposed to the labeled TriManC24 and visualized by confocal fluorescence microscopy.

[3] = test system: Dengue virus 2 (DV2); test: Dengue virus (DV2) cis-infection of human DCs; type: cell-based
Description: Compounds of the invention (TriManC24, TriManinsatC24) were serially diluted in water. Human DCs (2.5×10^5 in 200 μl) in 48-well plates were pre-treated with different concentrations of compounds or culture medium alone, in RPMI 1640 medium […] for 30 min at 37° C. They were exposed to DV-2 at a multiplicity of infection of 1.0, for 2 h at 37° C. Cells were washed and cultured in complete RPMI medium (condition 1) or in complete medium containing the tested compounds (TriManC24, TriMannsatC24) (condition 2). After 48 h, supernatants were titered and cells were subjected to intracellular detection of viral antigens. DCs were fixed with 4% (v/v) paraformaldehyde and permeabilized with 0.1% (v/v) Triton X-100 for 3 min at room temperature. After washing, they were labeled with mouse anti-DV type 2 monoclonal antibody (3H5.1, Millipore) and stained with APC -conjugated rat anti-mouse IgG1. Fluorescence intensity of the cells was analyzed by flow cytometry (FACSCalibur, Becton Dickinson), using the Cell Quest Pro software.
There are four different dengue serotypes (1-4), and we have used DV type 2 (DV2) to further investigate the ability of the compounds of the invention (TriManC24 and TriManinsatC24) to inhibit the infection of human DCs. These cells were pre-treated with different concentrations of compounds or culture medium alone, for 30 min at 37° C. They were then exposed to DV2 for 2 hours at 37° C. Cells were washed to remove excess virions and compounds, and further cultured either in the absence (condition 1) or in the presence (condition 2) of the tested compounds. After 48 hours, cells were subjected to intracellular detection of viral antigens, and supernatants were titrated (not shown). […] FIG. 3A and FIG. 3B show the percentage of infected DCs when incubated with distinct concentrations of TriManinsatC24 in condition 1 and in condition 2, respectively. The histograms clearly show the protecting effects of TriManinsatC24, in particular in condition 2 wherein TriManinsatC24 at 10, 50 and 100 μM enabled the percentage of infected DCs to be reduced down to 40%, 20% and 2% respectively.

[4] = test system: HIV-1 X4; test: HIV-1 X4 trans-infection of MAGI-CCR5 cells mediated by DCs; type: cell-based
Description: ManC1, […] (comparative) and compounds of the invention (ManC24, ManC17, TriManC24, TriDiManC24, TriManinsatC24 and ManinsatC24) were serially diluted in water. Human DCs (1×10^5 in 200 μl ) were pre-treated with different concentrations of compounds, or mannan (Sigma) or culture medium alone, in RPMI 1640 medium containing 10% FBS for 45 min at 37° C., prior infection with HIV-1 (100 ng of p24Gag) for 3 h. Excess free virus and molecules were removed by three washes. DCs were then cocultured with MAGI -CCR5 cells (1×10^5) at 37° C. plated in a 48-well plate. After two days, viral infection of MAGI-CCR5 cells was quantitated following beta-galactosidase assays and enumerating blue cells by light microscopy.
The IC50 were determined by serial dilution of each compound. The trans-infection assays were repeated a minimum of three times, and the IC50 determined using KaleidaGraph.
To investigate the ability of the compounds of the invention to inhibit HIV-1 trans infection, we chose to infect human DCs in order to best mimic in vivo conditions. […] This procedure allows precise quantification of HIV-1 replication in reporter MAGI-CCR5 cells by detection of beta-galactosidase activity. […] Upon viral entry leading to viral Tat expression and activation of the LTR, these cells permit quantification of HIV trans-infection after two days.

For `CCCCCCCCCCCCCCCCCCCCCCCCC(=O)NC(COCCC(=O)NCCOCCOCCOCCOC1OC(CO)C(O)C(O)C1O)(COCCC(=O)NCCOCCOCCOCCOC1OC(CO)C(O)C(O)C1O)COCCC(=O)NCCOCCOCCOCCOC1OC(CO)C(O)C(O)C1O` (stereo not shown) [TriManC24], the “inhibition of HIV-1 cis-infection / replication in DCs (in words)” value [1] was “decreases the amount of HIV R5 replication; also recorded: inhibit”, the “cell binding and internalization (in words)” value [2] was “binds to the cell membrane and can be internalized by DCs via clathrin -mediated endocytosis” and the “inhibition of Dengue virus infection of DCs (in words)” value [3] was “able to inhibit the direct infection of DCs by Dengue virus”. The “residual level of trans-infection” value [4] was 15%.
